The results in this text go back to patent US10375956B2, “Herbicidally active 2-(substituted-phenyl)-cyclopentane-1,3-dione compounds and derivatives thereof” (Syngenta Limited, priority 2013, dated 2019).

What all share (assay type): in vivo
For experiment [1], the system named is Lolium perenne (LOLPE). Put plainly: Test 2 glasshouse assay (IF50 formulation, X-77), post-emergence herbicidal activity. The following applies: 360 h, 15 DAA, visual score, read-out: Post-emergence herbicidal activity (percentage phytotoxicity) LOLPE; for pest or weed control at 125 g/ha: application rate 125 g/ha; for pest or weed control at 30 g/ha: application rate 30 g/ha. In outline: (§1)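 Plants in soil pots were sprayed 1 day (pre-emergence) or ~12 days (post-emergence) after sowing with IF50 formulation diluted in 0.2% v/v X-77. Cool species were grown at 20/16 °C day/night, 16 h light, 65% humidity. Visual % phytotoxicity was scored at 20DAA (pre) or 15DAA (post).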

Experiment [2] concerns Avena fatua (AVEFA). Described as above. Conditions: 360 h, 15 DAA, visual score, read-out: Post-emergence herbicidal activity (percentage phytotoxicity) AVEFA; for pest or weed control at 125 g/ha: application rate 125 g/ha; for pest or weed control at 30 g/ha: application rate 30 g/ha. A digest of the protocol:
as §1

The subject of experiment [3] is Alopecurus myosuroides (ALOMY). The description is as above. Conditions: 360 h, 15 DAA, visual score, read-out: Post-emergence herbicidal activity (percentage phytotoxicity) ALOMY; for pest or weed control at 125 g/ha: application rate 125 g/ha; for pest or weed control at 30 g/ha: application rate 30 g/ha. In outline:
as §1

In experiment [4] the test system is Alopecurus myosuroides (ALOMY). Description: Test 1 glasshouse assay, post-emergence herbicidal activity. The following applies: 312 h, after 13 days, read-out: Percentage phytotoxicity ALOMY. In outline:
(§2)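 Plants sprayed 8 days after sowing with active ingredient in acetone/water (50:50) containing 0.5% Tween 20, grown in glasshouse at 24/16°C day/night, 14 h light, 65% humidity. Phytotoxicity scored visually after 13 days as percentage damage (100% = total damage; 0% = none).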

The subject of experiment [5] is Echinochloa crus-galli (ECHCG). The experiment is described as above. The following applies: 312 h, after 13 days, read-out: Percentage phytotoxicity ECHCG. A digest of the protocol: as §2
In experiment [6] the test system is Zea mays (ZEAMX, corn/maize). Described as above. Conditions: 312 h, post-emergence (Example 1B Table 1), after 13 days, read-out: Percentage phytotoxicity ZEAMX. In outline:
(§3)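 Plants sprayed post-emergence after 8 days' growth with active ingredient in acetone/water (50:50) plus 0.5% Tween 20; glasshouse at 24/16° C day/night, 14 h light, 65% humidity. Visual percentage phytotoxicity scored 13 days later (100% = total damage, 0% = none).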

Experiment [7] relates to Setaria faberi (SETFA). Described as above. Conditions: 312 h, post-emergence (Example 1B Table 1), after 13 days, read-out: Percentage phytotoxicity SETFA. A digest of the protocol:
as §3

Experiment [8] concerns Digitaria sanguinalis (DIGSA). Put plainly: Test 2 glasshouse assay (IF50 formulation, X-77), pre-emergence herbicidal activity. The following applies: 480 h, 250 g/ha, 20DAA, read-out: Percentage phytotoxicity DIGSA. In outline: (§4)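 Seeds sown in standard soil, grown 1 day (pre) or about 12 days (post) in glasshouse (warm species 24/18 °C, 16 h light, 65% humidity), then sprayed with IF50 (50 g/L active) in 0.2% v/v aqueous X-77 at rate-dependent concentration. Visual % phytotoxicity scored 20 DAA (pre) or 15 DAA (post).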

Experiment [9] deals with Sorghum vulgare Pers. (SORVU). Described as above. The following applies: Sorghum bicolor, 480 h, 250 g/ha, 20DAA, read-out: Percentage phytotoxicity SORVU. In outline:
as §4

For experiment [10], the system named is Brachiaria plantaginea (BRAPL). The experiment is described as above. Conditions: Urochloa plantaginea, 480 h, 250 g/ha, 20DAA, read-out: Percentage phytotoxicity BRAPL. In outline: as §4
The test system of experiment [11] is Setaria faberi (SETFA). The experiment is described as above. The following applies: 480 h, 250 g/ha, 20DAA, read-out: Percentage phytotoxicity SETFA. In outline: as §4
Experiment [12] relates to Panicum miliaceum (PANMI). Described as above. Conditions: 480 h, 250 g/ha, 20DAA, read-out: Percentage phytotoxicity PANMI. In outline: as §4
Experiment [13] concerns Echinochloa crus-galli (ECHCG). The description is as above. The following applies: 480 h, 250 g/ha, 20DAA, read-out: Percentage phytotoxicity ECHCG. In outline: as §4
Where [14] appears, read: post-emergence (Example 1B Table 1).
[15] abbreviates: post-emergence (Example 1B Table 2).

Read-outs that look alike come from different tables or passages of the source.

For `C#CCC1CC(=O)C(c2c(F)cc(-c3ccc(Cl)cc3)cc2OC)C1=O` (stereo not drawn) [Compound A14], the pest or weed control at 125 g/ha was determined as 20% in experiment [1], 40% in experiment [2] and 60% in [3]. For the same compound, the pest or weed control at 62.5 g/ha in experiment [4] (setting [14]) came to 70%; in experiment [5] (setting [14]), 100%; in experiment [6] (62.5 g/ha), 100%; in [7] (62.5 g/ha), 90%. The pest or weed control at 250 g/ha is 90% in experiment [4] (setting [14]); 90% in [4] (setting [15]); 100% in experiment [5] (setting [14]); 100% in experiment [5] (setting [15]); 100% in experiment [6]; 100% in experiment [7]. Further, the pest or weed control at 250 g/ha in experiment [8] was 100%; in experiment [9], 90%; in experiment [10], 100%; in experiment [11] it was 100%; in experiment [12] it was 100%; in [13] it was 80%.
As to `C#CCC1CC(=O)C(c2c(Cl)cc(-c3ccc(F)cc3F)cc2OC)C1=O` (stereo not drawn) [Compound A12], the pest or weed control at 30 g/ha stood at 30% in experiment [1]; 10% in [2]; 60% in experiment [3]; 80% in experiment [4] (setting [14]); 100% in experiment [5] (setting [14]); 100% in [6]. In addition, the pest or weed control at 30 g/ha in [7] was determined as 100%. Besides, the pest or weed control at 125 g/ha stood at 90% in [1], 80% in [2] and 80% in experiment [3]. The pest or weed control at 250 g/ha in experiment [4] (setting [14]), in experiment [4] (setting [15]), in [5] (setting [14]), in [5] (setting [15]), in experiment [6] and in experiment [7] was 100% throughout. Moreover, the pest or weed control at 250 g/ha in [8] was 100%; in [9], 90%; in experiment [10], 100%; in experiment [11], 100%; in experiment [12], 100%; in [13], 80%. Moreover, the pest or weed control at 62.5 g/ha in [4] (setting [15]) is 60%; in experiment [5] (setting [15]), 100%.
As to `C#CCC1CC(=O)C(c2c(F)cc(-c3ccc(F)c(F)c3)cc2OC)C1=O` (stereo not drawn) [Compound A22], the pest or weed control at 30 g/ha came out at 10% in [1]; 0% in experiment [2]; 50% in experiment [3]; 70% in experiment [4] (setting [14]); 90% in [5] (setting [14]); 100% in experiment [6]. For the same compound, the pest or weed control at 30 g/ha in experiment [7] is 90%. The results for the pest or weed control at 125 g/ha in experiment [1], in [2] and in experiment [3] were 50%, 70% and 70%, respectively. Besides, the pest or weed control at 250 g/ha in [4] (setting [14]) was 100%; in experiment [5] (setting [14]), 100%; in experiment [6], 100%; in experiment [7] it was 100%; in experiment [8], 90%; in [9], 70%. Besides, the pest or weed control at 250 g/ha in experiment [10] came out at 90%; in experiment [11], 90%; in [12], 80%; in [13], 70%.
